Here are results for 25 compounds from patent US9540323B2 (BRISTOL-MYERS SQUIBB COMPANY, priority 2012, dated 2017).

Experiment [1] concerns the target cloned human P2Y1 receptors (Homo sapiens (Human), UniProt P47900). The experiment can be described thus: Binding Assay B - Scintillation Proximity Assay (SPA) for P2Y1 binding, [33P] 2MeS-ADP. The settings on record: SPA, 0.3 nM [33P] 2MeS-ADP, Cheng-Prusoff; read-out: P2Y1 Ki (nM) using binding assay B. As for the experimental part:
Binding Assay B—Scintillation Proximity Assay (SPA) for P2Y1 Binding
A SPA membrane binding assay was used to identify inhibitors of [^33P] […] Reactions were allowed to proceed to completion at room temperature for 1 hour followed by centrifugation of the plate for 5 min. About 40 μL of the aqueous solution was aspirated. Plates were sealed and the [^33P]

The subject of experiment [2] is human platelet rich plasma (PRP). In words: ADP induced platelet aggregation assay. The settings on record: Homo sapiens, Platelet, 5 min, read-out: PA IC50 (μM) @ 10 μM ADP, human PRP, 10 μM ADP, AUC at 5 minute.

Structures can show the parent of a compound that is named as a salt.

cloned human P2Y1 receptors, sequence (P47900 whole entry): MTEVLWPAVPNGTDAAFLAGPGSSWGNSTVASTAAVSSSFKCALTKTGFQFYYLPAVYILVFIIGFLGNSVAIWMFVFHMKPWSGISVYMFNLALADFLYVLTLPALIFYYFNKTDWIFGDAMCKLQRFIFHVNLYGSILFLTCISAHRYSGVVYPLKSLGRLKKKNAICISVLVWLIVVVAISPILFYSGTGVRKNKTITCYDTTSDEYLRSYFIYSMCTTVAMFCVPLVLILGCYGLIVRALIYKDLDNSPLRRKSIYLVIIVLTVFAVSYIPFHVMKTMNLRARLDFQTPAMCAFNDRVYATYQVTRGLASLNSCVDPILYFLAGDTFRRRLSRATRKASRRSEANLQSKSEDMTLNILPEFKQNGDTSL

On to `Cc1cccc2oc(-c3ccc(O)c4c3C(C)(C)CN4c3ccccc3NC(=O)Nc3ccc(OC(F)(F)F)cc3)nc12` [Example 90, 1-(2-(7-Hydroxy-3,3-dimethyl-4-(4-methylbenzo[d]oxazol-2-yl)indolin-1-yl)phenyl)-3-(4-(trifluoromethoxy)phenyl)urea], for which, in experiment [1], the Ki was found to be 56.7 nM. Moreover, in experiment [2], the IC50 was found to be 0.43 µM.

Consider `CC1(C)CN(c2ccccc2NC(=O)Nc2ccc(OC(F)(F)F)cc2)c2c(O)ccc(-c3nc4ccc(Cl)cc4o3)c21` [Example 91, 1-(2-(4-(6-Chlorobenzo[d]oxazol-2-yl)-7-hydroxy-3,3-dimethylindolin-1-yl)phenyl)-3-(4-(trifluoromethoxy)phenyl)urea], for which the inhibitory constant (Ki) in experiment [1] is 65.1 nM. Also, in experiment [2], the IC50 was 0.33 µM.

As to `CC1(C)CN(c2ccccc2NC(=O)Nc2ccc(OC(F)(F)F)cc2)c2c(O)ccc(-c3nc4ccc(F)cc4o3)c21` [Example 92, 1-(2-(4-(6-Fluorobenzo[d]oxazol-2-yl)-7-hydroxy-3,3-dimethylindolin-1-yl)phenyl)-3-(4-(trifluoromethoxy)phenyl)urea], the Ki in experiment [1] was determined as 36.6 nM. Further, the half-inhibitory concentration (IC50) in experiment [2] was 0.2 µM.

`Cc1cccc2nc(-c3ccc(O)c4c3C(C)(C)CN4c3ccccc3NC(=O)Nc3ccc(OC(F)(F)F)cc3)oc12` [Example 93, 1-(2-(7-Hydroxy-3,3-dimethyl-4-(7-methylbenzo[d]oxazol-2-yl)indolin-1-yl)phenyl)-3-(4-(trifluoromethoxy)phenyl)urea]: in experiment [1], the inhibition constant (Ki) was 52 nM. For the same compound, the concentration for half-maximal inhibition (IC50) in experiment [2] came to 0.8 µM.

For the compound `COc1ccc2nc(-c3ccc(O)c4c3C(C)(C)CN4c3ccccc3NC(=O)Nc3ccc(OC(F)(F)F)cc3)oc2c1` [Example 94, 1-(2-(7-Hydroxy-4-(6-methoxybenzo[d]oxazol-2-yl)-3,3-dimethylindolin-1-yl)phenyl)-3-(4-(trifluoromethoxy)phenyl)urea], the inhibitory constant (Ki) in experiment [1] stood at 39.5 nM. The half-maximal inhibitory concentration (IC50) in experiment [2] was determined as 0.48 µM.

As to `Cc1ccc2nc(-c3ccc(O)c4c3C(C)(C)CN4c3ccccc3NC(=O)Nc3ccc(OC(F)(F)F)cc3)oc2c1` [Example 95, 1-(2-(7-Hydroxy-3,3-dimethyl-4-(6-methylbenzo[d]oxazol-2-yl)indolin-1-yl)phenyl)-3-(4-(trifluoromethoxy)phenyl)-urea], in experiment [1], the Ki was 33.3 nM. In experiment [2], the IC50 amounted to 0.46 µM.

In the case of `CC1(C)CN(c2ccccc2NC(=O)Nc2ccc(OC(F)(F)F)cc2)c2c(O)ccc(-c3nc4cnccc4o3)c21` [Example 96, 1-(2-(7-Hydroxy-3,3-dimethyl-4-(oxazolo[4,5-c]pyridin-2-yl)indolin-1-yl)phenyl)-3-(4-(trifluoromethoxy)phenyl)urea], the Ki in experiment [1] was determined as 22.2 nM. Moreover, the IC50 in experiment [2] came to 2.99 µM.

`Cc1noc(-c2ccc(O)c3c2C(C)(C)CN3c2ccccc2NC(=O)Nc2ccc(OC(F)(F)F)cc2)n1` [Example 97, 1-(2-(7-Hydroxy-3,3-dimethyl-4-(3-methyl-1,2,4-oxadiazol-5-yl)indolin-1-yl)phenyl)-3-(4-(trifluoromethoxy)phenyl)urea]: in experiment [1], the inhibitory constant (Ki) is 20.7 nM. Also, in experiment [2], the IC50 came to 1.52 µM.

Consider `CC1(C)CN(c2ccccc2NC(=O)Nc2ccc(OC(F)(F)F)cc2)c2c(O)ccc(-c3nc4cc(F)c(F)cc4o3)c21` [Example 99, 1-(2-(4-(5,6-Difluorobenzo[d]oxazol-2-yl)-7-hydroxy-3,3-dimethylindolin-1-yl)phenyl)-3-(4-(trifluoromethoxy)phenyl)urea], for which the inhibition constant (Ki) in experiment [1] came to 28.1 nM. The IC50 in experiment [2] was 0.89 µM.

As to `CC1(C)CN(c2ccccc2NC(=O)Nc2nc3ccc(F)cc3s2)c2c(O)ccc(-c3nc4cc(Cl)ccc4s3)c21` [Example 100, 1-(2-(4-(5-Chlorobenzo[d]thiazol-2-yl)-7-hydroxy-3,3-dimethylindolin-1-yl)phenyl)-3-(6-fluorobenzo[d]thiazol-2-yl)urea], in experiment [1], the inhibition constant (Ki) stood at 38.4 nM. The IC50 in experiment [2] turned out to be 0.27 µM.

Turning to `CC1(C)CN(c2ccccc2NC(=O)Nc2nc3ccc(F)cc3s2)c2c(O)ccc(-c3nc4ccc(F)cc4o3)c21` [Example 101, 1-(2-(4-(6-Fluorobenzo[d]oxazol-2-yl)-7-hydroxy-3,3-dimethylindolin-1-yl)phenyl)-3-(6-fluorobenzo[d]thiazol-2-yl)urea], in experiment [1], the inhibition constant Ki is 31.9 nM. The half-inhibitory concentration (IC50) in experiment [2] is 0.67 µM.

For `Cc1cnc2oc(-c3ccc(O)c4c3C(C)(C)CN4c3ccccc3NC(=O)Nc3ccc(OC(F)(F)F)cc3)nc2c1` [Example 102, 1-(2-(7-Hydroxy-3,3-dimethyl-4-(6-methyloxazolo[5,4-b]pyridin-2-yl)indolin-1-yl)phenyl)-3-(4-(trifluoromethoxy)phenyl)urea], in experiment [1], the Ki came to 11.2 nM. For the same compound, the IC50 in experiment [2] worked out at 0.97 µM.

For the compound `Cc1ccnc2oc(-c3ccc(O)c4c3C(C)(C)CN4c3ccccc3NC(=O)Nc3ccc(OC(F)(F)F)cc3)nc12` [Example 103, 1-(2-(7-Hydroxy-3,3-dimethyl-4-(7-methyloxazolo[5,4-b]pyridin-2-yl)indolin-1-yl)phenyl)-3-(4-(trifluoromethoxy)phenyl)urea], the Ki in experiment [1] is 11.1 nM. In addition, the half-inhibitory concentration (IC50) in experiment [2] turned out to be 1.03 µM.

For the compound `CC1(C)CN(c2ccccc2NC(=O)Nc2ccc(OC(F)(F)F)cc2)c2c(O)ccc(C3=NC(C(C)(C)C)CO3)c21` (centres unmarked) [Example 104, 1-(2-(4-(4-tert-Butyl-4,5-dihydrooxazol-2-yl)-7-hydroxy-3,3-dimethylindolin-1-yl)phenyl)-3-(4-(trifluoromethoxy)phenyl)urea], the inhibition constant (Ki) in experiment [1] is 9.1 nM. Further, in experiment [2], the IC50 was determined as 0.46 µM.

For the compound `CC1(C)CN(c2ccccc2NC(=O)Nc2ccc(OC(F)(F)F)cc2)c2c(O)ccc(C3=NCC(C(F)(F)F)O3)c21` (centres unmarked) [Example 105, 1-(2-(7-Hydroxy-3,3-dimethyl-4-(5-(trifluoromethyl)-4,5-dihydrooxazol-2-yl)indolin-1-yl)phenyl)-3-(4-(trifluoromethoxy)phenyl)urea], the inhibitory constant (Ki) in experiment [1] amounted to 8.8 nM. Further, in experiment [2], the concentration for half-maximal inhibition (IC50) amounted to 1.57 µM.

For the compound `CC1(C)CN(c2ccccc2NC(=O)Nc2ccc(OC(F)(F)F)cc2)c2c(O)ccc(-c3nc4c(CO)cccc4o3)c21` [Example 106, 1-(2-(7-Hydroxy-4-(4-(hydroxymethyl)benzo[d]oxazol-2-yl)-3,3-dimethylindolin-1-yl)phenyl)-3-(4-(trifluoromethoxy)phenyl) urea], the inhibition constant Ki in experiment [1] came out at 364 nM. The concentration for half-maximal inhibition (IC50) in experiment [2] turned out to be 3.28 µM.

For `CNc1ncnc2oc(-c3ccc(O)c4c3C(C)(C)CN4c3ccccc3NC(=O)Nc3ccc(OC(F)(F)F)cc3)nc12` [Example 107, 1-(2-(7-Hydroxy-3,3-dimethyl-4-(7-(methylamino)oxazolo[5,4-d]pyrimidin-2-yl)indolin-1-yl)phenyl)-3-(4-(trifluoromethoxy)phenyl)urea], the inhibition constant Ki in experiment [1] worked out at 24 nM. Further, the IC50 in experiment [2] came out at 3.85 µM.

Turning to `CC1(C)CN(c2ccccc2NC(=O)Nc2nc3ccc(F)nc3s2)c2c(O)ccc(-c3nc4ccc(Cl)cc4o3)c21` [Example 108, 1-(2-(4-(6-Chlorobenzo[d]oxazol-2-yl)-7-hydroxy-3,3-dimethylindolin-1-yl)phenyl)-3-(5-fluorothiazolo[5,4-b]pyridin-2-yl)urea], the inhibition constant (Ki) in experiment [1] worked out at 9.7 nM. The half-maximal inhibitory concentration (IC50) in experiment [2] was 0.19 µM.

As for `CC(C)(C)CN1CCCC1c1ccc(NC(=O)Nc2ccccc2N2CC(C)(C)c3c(-c4nc5ccc(Cl)cc5o4)ccc(O)c32)cc1` (centres unmarked) [Example 109, 1-(2-(4-(6-Chlorobenzo[d]oxazol-2-yl)-7-hydroxy-3,3-dimethylindolin-1-yl)phenyl)-3-(4-(1-neopentylpyrrolidin-2-yl)phenyl)urea], the Ki in experiment [1] was found to be 22 nM. Further, the IC50 in experiment [2] came out at 0.13 µM.

`COc1ccc2nc(NC(=O)Nc3ccccc3N3CC(C)(C)c4c(-c5nc6ccc(Cl)cc6o5)ccc(O)c43)sc2n1` [Example 110, 1-(2-(4-(6-Chlorobenzo[d]oxazol-2-yl)-7-hydroxy-3,3-dimethylindolin-1-yl)phenyl)-3-(5-methoxythiazolo[5,4-b]pyridin-2-yl)urea]: the Ki in experiment [1] came to 15.4 nM. The half-maximal inhibitory concentration (IC50) in experiment [2] was 0.31 µM.

Consider `CC1(C)CN(c2ccccc2NC(=O)Nc2ccc(OC(F)(F)F)cc2)c2c(O)ccc(-c3cc(F)nc(F)c3)c21` [Example 111, 1-(2-(4-(2,6-Difluoropyridin-4-yl)-7-hydroxy-3,3-dimethylindolin-1-yl)phenyl)-3-(4-(trifluoromethoxy)phenyl)urea, TFA], for which the inhibition constant (Ki) in experiment [1] was determined as 7.5 nM. For the same compound, the IC50 in experiment [2] amounted to 0.14 µM.

On to `CC1(C)CN(c2ccccc2NC(=O)Nc2ccc(OC(F)(F)F)cc2)c2c(O)ccc(-c3ccnc(F)c3)c21` [Example 112, 1-(2-(4-(2-Fluoropyridin-4-yl)-7-hydroxy-3,3-dimethylindolin-1-yl)phenyl)-3-(4-(trifluoromethoxy)phenyl) urea], for which, in experiment [1], the Ki worked out at 9 nM. For the same compound, in experiment [2], the concentration for half-maximal inhibition (IC50) stood at 0.43 µM.

`CC1(C)CN(c2ccccc2NC(=O)Nc2ccc(OC(F)(F)F)cc2)c2c(O)ccc(-c3ccncc3)c21` [Example 113, 1-(2-(7-Hydroxy-3,3-dimethyl-4-(pyridin-4-yl)indolin-1-yl)phenyl)-3-(4-(trifluoromethoxy)phenyl)urea]: in experiment [1], the Ki came to 5.9 nM. Moreover, the IC50 in experiment [2] was 0.35 µM.

On to `CC1(C)CN(c2ccccc2NC(=O)Nc2ccc(OC(F)(F)F)cc2)c2c(O)ccc(-c3ccncc3Cl)c21` [Example 114, 1-(2-(4-(3-Chloropyridin-4-yl)-7-hydroxy-3,3-dimethylindolin-1-yl)phenyl)-3-(4-(trifluoromethoxy)phenyl) urea], for which, in experiment [1], the inhibition constant Ki was determined as 26.5 nM. Also, the IC50 in experiment [2] is 0.53 µM.

On to `CC1(C)CN(c2ccccc2NC(=O)Nc2ccc(OC(F)(F)F)cc2)c2c(O)ccc(-c3cncc(Cl)c3)c21` [Example 116, 1-(2-(4-(5-Chloropyridin-3-yl)-7-hydroxy-3,3-dimethylindolin-1-yl)phenyl)-3-(4-(trifluoromethoxy)phenyl) urea], for which the Ki in experiment [1] turned out to be 22.4 nM. Moreover, in experiment [2], the IC50 was determined as 0.5 µM.
